How the values were obtained:
[1] = biological target: IL-17A(FLAG-Tagged): IL-17RA(His-Tagged) (Homo sapiens, UniProt Q16552, K93Q); experiment: IL-17A(FLAG-Tagged): IL-17RA(His-Tagged) Binding Disruption Eu-HTRF Assay, Protocol 1; settings: Protocol 1, FLAG tagged IL-17A 2.5 nM; simple average if tested more than once
Text: An antibody directed against the FLAG tag of IL-17A (SEQ ID NO: 1) is labeled with the HTRF donor chromophore (Europium-cryptate). IL-17A is present as a dimer that is “locked into” this quaternary structure due to the formation of loop-spanning […] disulfide bridges. The construct of IL-17RA used in the assay excludes the […] portion of the receptor and is fused to a C-terminal 10×His tag (SEQ ID NO:2). An antibody directed against the His tag of the IL-17RA chimera is labeled with the HTRF acceptor chromophore (“D2”). The fluorescence-resonance energy transfer (FRET) depends on the vicinity of the donor chromophore to the acceptor, and interruption of the binding between the IL-17A and IL-17RA causes the reduction/loss of FRET. Therefore, this assay allows to evaluate the compound effect on the binding IL-17A and IL-17RA by monitoring the fluorescence intensity of donor vs acceptor. The assay was run using either Protocol 1 or Protocol 2 as described below.
Protocol 1. 40 nl of 2-fold serial diluted compound solution for total 22 dilution points is added into each well of a 1536-well, white, low-volume, non-binding plate (Greiner #782904), then 2 μl of FLAG tagged IL-17A at 2× final concentration (2.5 nM) in solution of PBS+0.01% Triton-X100 is added to each well. The assay plate is briefly centrifuged then incubated for 1 h at rt. A mixed solution is prepared containing 2×5 nM 10HIS×IL-17RA, 2×2.5 nM Eu-anti-FLAG (CISBIO), 2×5 nM D2-anti-HIS (CISBIO) in PBS+0.01% Triton-X100+200 mM Potassium Fluoride (Sigma 60238) and 2 μl of mix is added to each well of the assay plate. The plate is briefly centrifuged then incubated for 2 h at rt. The HTRF intensities at the wavelength of donor (620 nm) and acceptor (665 nm) are measured using BMG Pherastar. The ratio between intensities at two wavelengths is calculated and plotted against the compound concentration and the data is fitted to a one-site competition model to yield IC50 of the compound.

[2] = tested on: IL-17A-induced G-CSF production in human normal keratinocyte (NHK); experiment: NHK Assay: IL-17A-induced G-CSF production in human normal keratinocyte; type: cell-based; settings: 24 h, IL-17A 5 ng/mL, simple average if tested more than once
Summary of the method: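 Compound titrations are first mixed with recombinant human IL-17A for 1 h at room temperature. The mixture goes onto adult normal human keratinocytes (final IL-17A 5 ng/mL, 5% FBS, 0.2% DMSO) for 24 h at 37 °C. Secreted G-CSF is then measured by HTRF and IC50 fitted.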

UniProt Q16552, sequence (Q16552 with tags, fused parts or gaps K93Q): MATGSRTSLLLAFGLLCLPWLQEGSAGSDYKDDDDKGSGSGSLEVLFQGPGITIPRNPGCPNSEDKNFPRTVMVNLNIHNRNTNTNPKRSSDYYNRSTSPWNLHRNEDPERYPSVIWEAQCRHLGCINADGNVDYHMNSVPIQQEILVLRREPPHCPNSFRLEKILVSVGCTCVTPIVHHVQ

Row | Compound | IC50 [1] [nM] | IC50 ([2]; Homo sapiens, Keratinocyte) [nM] | IC50 [2] [nM]
1 | C[C@H](O[C@H](C)C(NC(=O)c1ccnn1C)c1nc2cc([C@@H](C3CC3)N3C[C@@H](C(F)(F)F)NC3=O)ccc2[nH]1)C(F)(F)F (single isomer, unassigned) [Example 14, N-((1R*,2R)-1-(5-((R)-Cyclopropyl((S)-2-oxo-4-(trifluoromethyl)imidazolidin-1-yl)methyl)-1H-benzo[d]imidazol-2-yl)-2-(((S)-1,1,1-trifluoropropan-2-yl)oxy)propyl)-1-methyl-1H-pyrazole-5-carboxamide] | < 50 | < 50 | –
2 | CC(C)n1nccc1C(=O)NC(c1nc2cc([C@@H](C3CC3)N3C[C@@H](C(F)(F)F)NC3=O)ccc2[nH]1)[C@@H](C)O[C@@H](C)C(F)(F)F (single isomer, unassigned) [Example 15, N-((1R*,2R)-1-(5-((R)-Cyclopropyl((S)-2-oxo-4-(trifluoromethyl)imidazolidin-1-yl)methyl)-1H-benzo[d]imidazol-2-yl)-2-(((S)-1,1,1-trifluoropropan-2-yl)oxy)propyl)-1-isopropyl-1H-pyrazole-5-carboxamide] | < 50 | < 50 | –
3 | CC(C)(OC[C@@H](NC(=O)c1nonc1C1CC1)c1nc2cc(CN3C[C@@H](C(F)(F)F)NC3=O)ccc2[nH]1)C(F)(F)F (single isomer, unassigned) [Example 16] | > 100 | > 100 | –
4 | Cc1nonc1C(=O)NC(COC(C)(C)C(F)(F)F)c1nc2nc([C@@H](C3CC3)N3CC(F)(F)CNC3=O)ccc2[nH]1 (single isomer, unassigned) [Example 18, N—((R*)-1-(5-((R)-Cyclopropyl(5,5-difluoro-2-oxotetrahydropyrimidin-1(2H)-yl)methyl)-1H-imidazo[4,5-b]pyridin-2-yl)-2-((1,1,1-trifluoro-2-methylpropan-2-yl)oxy)ethyl)-4-methyl-1,2,5-oxadiazole-3-carboxamide] | < 50 | 50 to 100 | –
5 | Cc1nonc1C(=O)NC(c1nc2nc([C@@H](C3CC3)N3CC(F)(F)CNC3=O)ccc2[nH]1)[C@@H](C)O[C@H](C)C(F)(F)F (single isomer, unassigned) [Example 19, N-((1R*,2R)-1-(5-((R)-Cyclopropyl(5,5-difluoro-2-oxotetrahydropyrimidin-1(2H)-yl)methyl)-1H-imidazo[4,5-b]pyridin-2-yl)-2-(((R)-1,1,1-trifluoropropan-2-yl)oxy)propyl)-4-methyl-1,2,5-oxadiazole-3-carboxamide] | < 50 | 50 to 100 | –
6 | C[C@@H](O[C@H](C)C(F)(F)F)C(NC(=O)c1nonc1C1CC1)c1nc2nc([C@@H](C3CC3)N3CC(F)(F)CNC3=O)ccc2[nH]1 (single isomer, unassigned) [Example 20, 4-Cyclopropyl-N-((1R*,2R)-1-(5-((R)-cyclopropyl(5,5-difluoro-2-oxotetrahydropyrimidin-1(2H)-yl)methyl)-1H-imidazo[4,5-b]pyridin-2-yl)-2-(((R)-1,1,1-trifluoropropan-2-yl)oxy)propyl)-1,2,5-oxadiazole-3-carboxamide] | < 50 | < 50 | –
7 | COC[C@H](c1ccc2[nH]c(C(NC(=O)c3nonc3C)[C@@H](C)O[C@H](C)C(F)(F)F)nc2n1)N1CC(F)(F)CNC1=O (single isomer, unassigned) [Example 21, N-((1R*,2R)-1-(5-((S)-1-(5,5-Difluoro-2-oxotetrahydropyrimidin-1(2H)-yl)-2-methoxyethyl)-1H-imidazo[4,5-b]pyridin-2-yl)-2-(((R)-1,1,1-trifluoropropan-2-yl)oxy)propyl)-4-methyl-1,2,5-oxadiazole-3-carboxamide] | < 50 | < 50 | –
8 | COC[C@H](c1ccc2[nH]c(C(COC(C)(C)C(F)(F)F)NC(=O)c3nonc3C)nc2c1)N1C[C@@H](C(F)(F)F)NC1=O (single isomer, unassigned) [Example 31, N—((R*)-1-(5-((S)-2-Methoxy-1-((S)-2-oxo-4-(trifluoromethyl)imidazolidin-1-yl)ethyl)-1H-benzo[d]imidazol-2-yl)-2-((1,1,1-trifluoro-2-methylpropan-2-yl)oxy)ethyl)-4-methyl-1,2,5-oxadiazole-3-carboxamide] | < 50 | < 50 | –
9 | COC[C@H](c1ccc2[nH]c(C(COC(C)(C)C(F)(F)F)NC(=O)c3nonc3C)nc2c1)N1CC(F)(F)CNC1=O (single isomer, unassigned) [Example 34, N—((R*)-1-(5-((S)-1-(5,5-Difluoro-2-oxotetrahydropyrimidin-1(2H)-yl)-2-methoxyethyl)-1H-benzo[d]imidazol-2-yl)-2-((1,1,1-trifluoro-2-methylpropan-2-yl)oxy)ethyl)-4-methyl-1,2,5-oxadiazole-3-carboxamide] | < 50 | < 50 | –
10 | COC[C@H](c1ccc2[nH]c(C(COC(C)(C)C(F)(F)F)NC(=O)c3nonc3C3CC3)nc2c1)N1CC(F)(F)CNC1=O (single isomer, unassigned) [Example 35, 4-Cyclopropyl-N—((R*)-1-(5-((S)-1-(5,5-difluoro-2-oxotetrahydropyrimidin-1(2H)-yl)-2-methoxyethyl)-1H-benzo[d]imidazol-2-yl)-2-((1,1,1-trifluoro-2-methylpropan-2-yl)oxy)ethyl)-1,2,5-oxadiazole-3-carboxamide] | < 50 | < 50 | –
11 | Cc1nonc1C(=O)NC(COC(C)(C)C(F)(F)F)c1nc2cc([C@@H](COC3CC3)N3C[C@@H](C(F)(F)F)NC3=O)ccc2[nH]1 (single isomer, unassigned) [Example 41, N—((R*)-1-(5-((S)-2-cyclopropoxy-1-((S)-2-oxo-4-(trifluoromethyl)imidazolidin-1-yl)ethyl)-1H-benzo[d]imidazol-2-yl)-2-((1,1,1-trifluoro-2-methylpropan-2-yl)oxy)ethyl)-4-methyl-1,2,5-oxadiazole-3-carboxamide] | < 50 | < 50 | –
12 | COC[C@H](c1ccc2[nH]c(C(COC(C)(C)C(F)(F)F)NC(=O)c3nonc3C3CC3)nc2c1)N1C[C@@H](C(F)(F)F)NC1=O (single isomer, unassigned) [Example 47, 4-Cyclopropyl-N—((R*)-1-(5-((S)-2-methoxy-1-((S)-2-oxo-4-(trifluoromethyl)imidazolidin-1-yl)ethyl)-1H-benzo[d]imidazol-2-yl)-2-((1,1,1-trifluoro-2-methylpropan-2-yl)oxy)ethyl)-1,2,5-oxadiazole-3-carboxamide] | < 50 | < 50 | –
13 | COCC(c1ccc2[nH]c([C@H](COC(C)(C)C(F)(F)F)NC(=O)c3nonc3C)nc2c1)N1CC(C)(C)NC1=O (single isomer, unassigned) [Example 48, N—((R)-1-(5-((R*)-1-(4,4-Dimethyl-2-oxoimidazolidin-1-yl)-2-methoxyethyl)-1H-benzo[d]imidazol-2-yl)-2-((1,1,1-trifluoro-2-methylpropan-2-yl)oxy)ethyl)-4-methyl-1,2,5-oxadiazole-3-carboxamide] | < 50 | < 50 | –
14 | COCC(c1ccc2[nH]c([C@H](COC(C)(C)C(F)(F)F)NC(=O)c3nonc3C)nc2c1)N1CC(C)(C)NC1=O (single isomer, unassigned) [Example 49, N—((R)-1-(5-((S*)-1-(4,4-Dimethyl-2-oxoimidazolidin-1-yl)-2-methoxyethyl)-1H-benzo[d]imidazol-2-yl)-2-((1,1,1-trifluoro-2-methylpropan-2-yl)oxy)ethyl)-4-methyl-1,2,5-oxadiazole-3-carboxamide] | > 100 | – | > 100
